The results in this text go back to ChEMBL document CHEMBL1201862, “PubChem BioAssay data set” (2004).

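Cultured in 96-well plates, cells were exposed to test compound for 48 hours across five concentrations. GI50: concentration for 50% inhibition of growth.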 Activity calls are given as the source filed them. Rule as the data show it: active = GI50 up to about 1.1 µM and inactive = higher. Where a SMILES comes first, the peptide text is derived from it. [ ]: non-standard residue; d: D form. The star is where a group is joined. ξ: configuration not given here. ξD = NC(CC(=O)O)C(=O)O; Boc = CC(C)(C)OC(=O)*; Aib = CC(C)(N)C(=O)O; OtBu = CC(C)(C)O*

Some test systems named below: HCT-15; SK-MEL-28; OVCAR-5; CCRF-CEM; Malme-3M; SR; TK-10; DU-145; A549; SF-295; HT-29; PC-3; CAKI-1; MOLT-4; OVCAR-3; UACC-257; HCT-116; K562; HOP-92; OVCAR-4.
Common to all, as to assay: inhibition of tumour cell growth, NCI panel, 48 h

On to `S=c1sc2c(s1)SCc1cccc(n1)CSc1sc(=S)sc1SCc1cccc(n1)CS2`, for which the GI50 is over 100 µM with HCT-15; > 100 µM (inactive) in the assay on SK-MEL-28; > 100 µM (inactive) in the assay on OVCAR-5; > 100 µM (inactive) with CCRF-CEM; > 100 µM (inactive) with Malme-3M; > 100 µM (inactive) in the assay on SR. Also, the GI50 with TK-10, in the assay on DU-145, in the assay with A549, in the assay on SF-295, with HT-29 and in the assay on PC-3 was > 100 µM (inactive) in each case. The GI50 in the assay with CAKI-1, with MOLT-4, in the assay on OVCAR-3, in the assay with UACC-257, in the assay with HCT-116 and in the assay on K562 was > 100 µM (inactive) in each case.
Turning to `COC(=O)c1nn2ccc3ccccc3c2c1C(=O)OC`, the GI50 was 54.3 µM with HCT-15; > 100 µM (inactive) in the assay with SK-MEL-28; > 100 µM (inactive) with OVCAR-5; 96.2 µM (inactive) in the assay with HOP-92; > 100 µM (inactive) in the assay with Malme-3M; 41.1 µM (inactive) with SR. Moreover, the GI50 is > 100 µM (inactive) with TK-10; > 100 µM (inactive) in the assay on OVCAR-4; > 100 µM (inactive) in the assay with DU-145; > 100 µM (inactive) in the assay with A549; > 100 µM (inactive) in the assay with SF-295; 48 µM (inactive) with HT-29. The GI50 was 47.8 µM (inactive) in the assay with PC-3; 48.9 µM (inactive) with CAKI-1; 39.9 µM (inactive) in the assay on MOLT-4; 60.7 µM (inactive) in the assay on UACC-257; 65.9 µM (inactive) with HCT-116; 58.7 µM (inactive) in the assay on K562.
On to `Cc1cccc(-n2c(C)nc3ccc(NC(=S)Nc4ccccc4)cc3c2=O)c1`, for which the GI50 is 68.5 µM with HCT-15; > 100 µM (inactive) in the assay on SK-MEL-28; > 100 µM (inactive) with OVCAR-5; 69.2 µM (inactive) in the assay with Malme-3M; > 100 µM (inactive) in the assay with SR; > 100 µM (inactive) in the assay with TK-10. The GI50 in the assay with OVCAR-4 was 60.8 µM (inactive); with DU-145, 87.7 µM (inactive); in the assay on SF-295 it was > 100 µM (inactive); in the assay with HT-29, 51.9 µM (inactive); with PC-3 it was 41.6 µM (inactive); in the assay with CAKI-1, > 100 µM (inactive). Also, the GI50 was 28.4 µM (inactive) in the assay with MOLT-4; 32.4 µM (inactive) with OVCAR-3; 47.6 µM (inactive) in the assay on UACC-257; 46.5 µM (inactive) with HCT-116; 50.1 µM (inactive) in the assay on K562.
Regarding `CS(=O)(=O)c1nc(-c2cc3c(c(S(C)(=O)=O)n2)CCCC3)cc2c1CCCC2`, the GI50 with HCT-15 is over 100 µM; in the assay on SK-MEL-28, > 100 µM (inactive); with OVCAR-5, > 100 µM (inactive); with CCRF-CEM, > 100 µM (inactive); in the assay on Malme-3M, > 100 µM (inactive); in the assay with SR it was > 100 µM (inactive). Further, the GI50 in the assay on TK-10 is > 64.6 µM (inactive); in the assay with OVCAR-4 it was > 100 µM (inactive); in the assay on DU-145 it was > 100 µM (inactive); in the assay with A549, > 100 µM (inactive); in the assay with SF-295, 33.6 µM (inactive); in the assay with HT-29, > 100 µM (inactive). For the same compound, the GI50 in the assay with PC-3 is > 100 µM (inactive); in the assay on CAKI-1, > 39.9 µM (inactive); with MOLT-4, > 100 µM (inactive); in the assay on OVCAR-3 it was > 100 µM (inactive); in the assay on UACC-257, > 100 µM (inactive); with HCT-116 it was > 100 µM (inactive). Further, the GI50 in the assay with K562 is > 100 µM (inactive).
Turning to `CCOC(=O)c1ccc(-c2ccc(Cl)cc2)[nH]1`, the GI50 with HCT-15 was over 10 µM; in the assay with OVCAR-5, > 10 µM (inactive); with CCRF-CEM, > 10 µM (inactive); in the assay on HOP-92, > 10 µM (inactive); in the assay on Malme-3M, > 10 µM (inactive); in the assay on SR, > 10 µM (inactive). Further, the GI50 with TK-10, in the assay on OVCAR-4, with DU-145, with A549, with SF-295 and with HT-29 was > 10 µM (inactive) in each case. Moreover, the GI50 with PC-3 is 0.0161 µM (active); in the assay on MOLT-4, > 10 µM (inactive); in the assay on OVCAR-3 it was > 10 µM (inactive); with UACC-257, > 10 µM (inactive); in the assay on HCT-116, > 10 µM (inactive); with K562, > 10 µM (inactive).
With `CCn1c(-c2ccc(F)cc2)nc2c1C(=O)c1ccccc1C2=O`, the GI50 is over 100 µM with HCT-15; > 100 µM (inactive) in the assay on SK-MEL-28; > 100 µM (inactive) with OVCAR-5; > 100 µM (inactive) in the assay on CCRF-CEM; > 100 µM (inactive) with HOP-92; 45.1 µM (inactive) with Malme-3M. Also, the GI50 with SR, in the assay on TK-10, in the assay on OVCAR-4, in the assay on DU-145, in the assay on A549 and in the assay on SF-295 was > 100 µM (inactive) in each case. Also, the GI50 is 75.5 µM (inactive) in the assay on HT-29; > 100 µM (inactive) in the assay with PC-3; > 100 µM (inactive) with MOLT-4; 33.8 µM (inactive) with OVCAR-3; > 100 µM (inactive) in the assay with UACC-257; > 100 µM (inactive) with HCT-116. Moreover, in the assay with K562, the GI50 was > 100 µM (inactive).
`COc1cc(/C=C2\N=C(c3ccccc3)N(c3ccc4c(c3)Sc3cc(N5C(=O)/C(=C/c6cc(OC)c(OC)c(OC)c6)N=C5c5ccccc5)ccc3N4)C2=O)cc(OC)c1OC`: the GI50 in the assay with HCT-15 was over 100 µM; in the assay on SK-MEL-28 it was 40.6 µM (inactive); in the assay on OVCAR-5, 20.6 µM (inactive); with CCRF-CEM, 22 µM (inactive); in the assay on HOP-92, 18.8 µM (inactive); with Malme-3M, 19.5 µM (inactive). Also, the GI50 with TK-10 is 16.9 µM (inactive); in the assay on OVCAR-4, 18.9 µM (inactive); in the assay with DU-145, 54.3 µM (inactive); in the assay with A549 it was 37.6 µM (inactive); in the assay with SF-295, 22.9 µM (inactive); in the assay with HT-29, > 100 µM (inactive). Moreover, the GI50 in the assay with PC-3 is 19.6 µM (inactive); with CAKI-1 it was 18.5 µM (inactive); in the assay with MOLT-4 it was 37.2 µM (inactive); in the assay on OVCAR-3, 20.8 µM (inactive); in the assay on UACC-257 it was 16.9 µM (inactive); with HCT-116 it was 42 µM (inactive). Besides, the GI50 with K562 is 21 µM (inactive).
Turning to `COC(=O)CCC1=C(CC(=O)OC)C(C)(OC)N/C1=N/C(=O)OCc1ccccc1` (stereo unspecified), the GI50 is over 100 µM in the assay with HCT-15; > 100 µM (inactive) in the assay with SK-MEL-28; > 100 µM (inactive) with OVCAR-5; > 100 µM (inactive) with CCRF-CEM; > 100 µM (inactive) with Malme-3M; > 100 µM (inactive) with SR. The GI50 in the assay with TK-10, in the assay on OVCAR-4, in the assay on DU-145, in the assay on A549, in the assay on SF-295 and in the assay with HT-29 was > 100 µM (inactive) in each case. For the same compound, the GI50 in the assay on PC-3, in the assay on CAKI-1, in the assay on MOLT-4, in the assay with UACC-257, in the assay on HCT-116 and in the assay on K562 was > 100 µM (inactive) in each case.
As to `O=C(CP(c1ccccc1)c1ccccc1)c1cccc(C(=O)CP(c2ccccc2)c2ccccc2)c1`, the GI50 in the assay on HCT-15 is 49.3 µM; in the assay with SK-MEL-28, 92 µM (inactive); with OVCAR-5, > 100 µM (inactive); in the assay on CCRF-CEM, 6.76 µM (inactive); with SR, 15.7 µM (inactive); in the assay on TK-10, > 100 µM (inactive). Also, the GI50 with OVCAR-4 is 26.1 µM (inactive); in the assay on DU-145, 55.8 µM (inactive); in the assay on A549 it was 15.6 µM (inactive); in the assay on SF-295 it was 26.1 µM (inactive); in the assay with HT-29, 8.2 µM (inactive); with PC-3, 37.2 µM (inactive). In addition, the GI50 was 86.3 µM (inactive) in the assay on CAKI-1; 6.75 µM (inactive) in the assay on MOLT-4; 32.1 µM (inactive) with UACC-257; 36.8 µM (inactive) in the assay with HCT-116; 8.02 µM (inactive) in the assay on K562.
On to `C=CCOc1cc2c(cc1C(C)c1ccc(OC)cc1)OCO2` (stereo unspecified), for which the GI50 with HCT-15 was 0.489 µM; in the assay with SK-MEL-28 it was > 100 µM (inactive); in the assay with OVCAR-5, 12.2 µM (inactive); in the assay on CCRF-CEM, 0.443 µM (active); in the assay with Malme-3M, 0.647 µM (active); with SR, 0.299 µM (active). Moreover, the GI50 was 7.41 µM (inactive) in the assay with TK-10; > 100 µM (inactive) with OVCAR-4; 10.6 µM (inactive) in the assay with DU-145; 0.869 µM (active) with A549; 0.299 µM (active) in the assay on SF-295; 0.286 µM (active) in the assay with HT-29. The GI50 with PC-3 was 0.352 µM (active); in the assay on CAKI-1 it was 0.628 µM (active); in the assay on MOLT-4 it was 0.483 µM (active); in the assay with OVCAR-3, 0.429 µM (active); in the assay with UACC-257, 0.263 µM (active); in the assay with HCT-116 it was 0.525 µM (active). Further, the GI50 in the assay on K562 is 0.39 µM (active).
`COC(=O)C(C)(C)NC(=O)C(C)(C)NC(=O)C(CC(=O)OC(C)(C)C)NC(=O)OC(C)(C)C` (stereo unspecified) (Boc-[ξD](OtBu)-[Aib]-[Aib]-OMe): the GI50 in the assay with HCT-15 was over 100 µM; with SK-MEL-28, > 100 µM (inactive); in the assay on OVCAR-5, > 100 µM (inactive); with CCRF-CEM it was > 100 µM (inactive); with HOP-92, > 100 µM (inactive); with Malme-3M, > 100 µM (inactive). Moreover, the GI50 with TK-10, in the assay with OVCAR-4, with DU-145, in the assay on A549, in the assay on SF-295 and with HT-29 was > 100 µM (inactive) each time. For the same compound, the GI50 in the assay with PC-3, with CAKI-1, with MOLT-4, with OVCAR-3, in the assay on UACC-257 and in the assay on HCT-116 was > 100 µM (inactive) throughout. The GI50 with K562 is > 100 µM (inactive).
